Broadly, the IC50 is the concentration that inhibits the measured activity by half. Lower therefore signals inhibition by little substance. The term inhibition denotes the drop in the measured response relative to a control, in per cent.

The record followed here is patent US5183826A, “Antiviral agent” (Merck & Co., Inc., priority 1990, dated 1993).

In series [1] the target is T1, HIV protease (Human immunodeficiency virus type 1 group M subtype B, UniProt P12497).
T1 construct: ability of a HIV protease to cleave the peptide bond
Put plainly: HIV protease inhibition: cleavage of radiolabelled synthetic peptide substrate (beta-naphthylalanine-proline bond). The series is classed as biochemical. To be noted: for Disintegrations/Minute: Blank 236, Total (Control) 4497. An excerpt:
The HIV protease inhibitor activity may be seen in an assay to test the presence of a compound which affects the ability of a HIV protease to cleave the peptide bond between β-naphthylalanine and proline. A suitable substrate is ^3 H β-casein. However, a synthetic peptide containing the β-naphthylalanine and proline link gives more consistent results and one especially preferred is a peptide which is radioactively labelled at one terminus and arginine substituted at the other terminus thereby allowing the basic end to be bound to a cation exchange resin and the cleaved labelled fragment to be found in the eluate.
In a representative assay, 25 μl of a dilute peptide substrate solution containing 0.5 μl of the substrate in a 100 mM sodium acetate buffer was added to an assay tube containing (a) 45 μl of 111 mM sodium acetate buffer, (b) 25 μl of a diluted protease solution containing 0.4% bovine serum albumin (BSA) and (c) 5 μl of a solution containing from 0.63 to 210 μM of Compound I, or to blank tubes containing 25 μl of 100 mM sodium acetate plus 0.4 percent BSA, 45 μl of 111 mM sodium acetate buffer and 5 μl of dimethyl sulfoxide (DMSO) (99 vols. DMSO plus 1 vol 100 mM tris(hydroxymethyl)aminomethane (TRIS·HCl), pH 7.5). In the tubes, the concentration of the protease solution is 2.0 nM. The assay tubes are then incubated for 37° C. for 60 minutes and the reaction then quenched with 100 μl of 5% H3 PO4.
150 microliters of the reaction mixture was placed on a cation exchange column (Dowex AG-50W-X8, Dow Chemical Company) and the column then washed with 1.85 milliliters of water and the effluents collected in scintillation vials. 7-10 milliliters of scintillation cocktails were added to each vial, the vials vortexed vigorously, then placed in the scintillation counter and counted using the tritium channel. The results were as follows:
The percent inhibition was obtained by the following calculation: [formula]

The subject of series [2] is platelet activating factor. Put plainly: assay for platelet activating factor.
The test system of series [3] is proteases. The series can be described thus: specificity against other proteases (statement). The series is classed as biochemical. To be noted: no inhibitory effect or some activity only against proteases whose locus of action is avoidable.
Series [4] in a line: cytotoxic and other side effects (statement).
Series [5] is described as follows: solubility in organic solvents. To be noted: methanol, ethanol, isopropanol, ethyl acetate, chloroform, dimethylformamide, benzene, diethyl ether, dimethyl sulfoxide.

In the case of `C=C1C(C)C2C(Cc3ccccc3)NC(=O)C23C(OC(C)=O)/C=C/C(C)CC(C)C/C=C/C3C1O` (stereo not shown) [Compound I], the “HIV protease inhibition (general statement in words)” value in series [1] is listed as “very effective HIV protease inhibitor”. In series [1], the IC50 is ~6.28 µM. In addition, the Disintegrations/Minute in series [1] (Compound I 2.1 μM) was 3862 Disintegrations/Minute; in series [1] (Compound I 6.3 μM), 2309 Disintegrations/Minute; in series [1] (Compound I 21 μM), 1139 Disintegrations/Minute; in series [1] (Compound I 63 μM), 550 Disintegrations/Minute; in series [1] (Compound I 210 μM), 402 Disintegrations/Minute; in series [1] (Compound I .63 μM) it was 5265 Disintegrations/Minute. Besides, the inhibition at 2.1 µM in series [1] (Compound I 2.1 μM, protease 2.0 nM, 37° C., 60 minutes, read-out: Percent Inhibition) amounted to 15%. Besides, in series [1] (Compound I 6.3 μM, protease 2.0 nM, 37° C., 60 minutes, read-out: Percent Inhibition), the inhibition at 6.3 µM turned out to be 51%. Further, the inhibition at 21 µM (stock) in series [1] (Compound I 21 μM, protease 2.0 nM, 37° C., 60 minutes, read-out: Percent Inhibition) was 79%. Besides, the inhibition at 63 µM in series [1] (Compound I 63 μM, protease 2.0 nM, 37° C., 60 minutes, read-out: Percent Inhibition) was 93%. Moreover, the inhibition at 210 µM in series [1] (Compound I 210 μM, protease 2.0 nM, 37° C., 60 minutes, read-out: Percent Inhibition) was determined as 96%. The inhibition at 0.63 µM (stock) in series [1] (Compound I .63 μM, protease 2.0 nM, 37° C., 60 minutes, read-out: Percent Inhibition) was -18%. Also, the “inhibition of HIV protease (in words)” value in series [1] (concentration of Compound I about 63 μm or greater) was “very high degree to substantially complete inhibition”. The “activity in an assay for platelet activating factor” value in series [2] is reported as “some activity”. Besides, the specificity among proteases entry in series [3] was “highly specific having no inhibitory effect or showing some activity only against proteases whose locus of action is avoidable”. For the same compound, the “undesirable cytotoxic and other side effects” value in series [4] is “substantially free of undesirable cytotoxic and other side effects”. In series [5], the “solubility in organic solvents” value is listed as “soluble in organic solvents”.
